# Data taken from patent US6737383B1, “Herbicidal oxadiazolidines” (priority 1999, dated 2004).
# How the values were obtained:
# bedstraw = assay: Test B pre/postemergence bedstraw; assay type: in vivo, Galium aparine
# How it was run: (§1)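 Test chemicals in a non-phytotoxic solvent mixture with surfactant were sprayed preemergence onto planted seeds and postemergence onto plants 2 to 18 cm tall (1- to 4-leaf stage). After twelve to sixteen days in a greenhouse, injury was visually rated against untreated controls from 0 (no effect) to 10 (complete control).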
# blackgrass = assay: Test B pre/postemergence blackgrass; assay type: in vivo, Alopecurus myosuroides
# How it was run: as §1
# surinam grass = assay: Test B pre/postemergence surinam grass; assay type: in vivo, Brachiaria decumbens
# How it was run: as §1
# cocklebur = assay: Test B pre/postemergence cocklebur; assay type: in vivo, Xanthium strumarium; conditions: for Cocklebur plant response rating: Postemergence; for Plant response rating, Cocklebur: Preemergence
# How it was run: as §1
# corn = assay: Test B pre/postemergence corn; assay type: in vivo, Zea mays
# How it was run: as §1
# crabgrass = assay: Test B pre/postemergence crabgrass; assay type: in vivo, Digitaria sanguinalis
# How it was run: as §1
# giant foxtail = assay: Test B pre/postemergence giant foxtail; assay type: in vivo, Setaria faberii
# How it was run: as §1
# morningglory = assay: Test B pre/postemergence morningglory; assay type: in vivo, Ipomoea hederacea
# How it was run: as §1
# pigweed = assay: Test B pre/postemergence pigweed; assay type: in vivo, Amaranthus retroflexus
# How it was run: as §1
# rape = assay: Test B pre/postemergence rape; assay type: in vivo, Brassica napus
# How it was run: as §1
# soybean = assay: Test B pre/postemergence soybean; assay type: in vivo, Glycine max
# How it was run: as §1
# sugar beet = assay: Test B pre/postemergence sugar beet; assay type: in vivo, Beta vulgaris
# How it was run: as §1
# velvetleaf = assay: Test B pre/postemergence velvetleaf; assay type: in vivo, Abutilon theophrasti
# How it was run: as §1
# wheat = assay: Test B pre/postemergence wheat; assay type: in vivo, Triticum aestivum
# How it was run: as §1
# wild oat = assay: Test B pre/postemergence wild oat; assay type: in vivo, Avena fatua
# How it was run: as §1
# purple nutsedge = assay: Test B pre/postemergence purple nutsedge; assay type: in vivo, Cyperus rotundus
# How it was run: as §1
# duck salad = assay: Test B flood test duck salad; assay type: in vivo, Heteranthera limosa; conditions: Rate 125 g/ha; Postemergence section (flood test species); scale 0 to 10, 0 no effect, 10 complete control
# Experimental: At the same time, these crop and weed species were also treated with postemergence applications of test chemicals formulated in the same manner. Plants ranged in height from 2 to 18 cm (1- to 4-leaf stage) for postemergence treatments. Plant species in the flood test consisted of rice (Oryza sativa), smallflower flatsedge (Cyperus difformis), duck salad (Heteranthera limosa) and bamyardgrass (Echinochloa crus-galli) grown to the 2-leaf stage for testing. Treated plants and controls were maintained in a greenhouse for twelve to sixteen days, after which all species were compared to controls and visually evaluated. Plant response ratings, summarized in Table B, are based on a scale of 0 to 10 where 0 is no effect and 10 is complete control. A dash (−) response means no test result.
# [1] = Postemergence, Rate 62 g/ha, scale 0 to 10, 0 is no effect, 10 is complete control
# [2] = Postemergence, Rate 250 g/ha, scale 0 to 10, 0 no effect, 10 complete control
# [3] = Preemergence, Rate 62 g/ha, scale 0 to 10, 0 is no effect, 10 is complete control
# [4] = Preemergence, Rate 125 g/ha, scale 0 to 10 (0 no effect, 10 complete control)
# [5] = Preemergence, Rate 250 g/ha, scale of 0 to 10 where 0 is no effect and 10 is complete control
# [6] = Preemergence, Rate 500 g/ha, scale 0 (no effect) to 10 (complete control)
# [7] = Rate 125 g/ha, Postemergence, scale 0 to 10, 0 no effect, 10 complete control
# [8] = Rate 500 g/ha, Postemergence, 0 to 10 scale (0 no effect, 10 complete control)
# [9] = Rate 62 g/ha, scale 0 to 10, 0 is no effect, 10 is complete control
smiles,measurement,setting,value
Cc1ccccc1-n1c(=O)on(C(=O)N(c2ccc(F)cc2)C2CC2)c1=O [Compound 37],Bedstraw plant response rating,bedstraw; [1],0
same,Bedstraw plant response rating,bedstraw; [2],0
same,"Plant response rating, Bedstraw",bedstraw; [3],0
same,"Plant response rating, Bedstraw",bedstraw; [4],0
same,"Plant response rating, Bedstraw",bedstraw; [5],0
same,Bedstraw plant response rating,bedstraw; [6],0
same,Bedstraw plant response rating,bedstraw; [7],0
same,Bedstraw plant response rating,bedstraw; [8],0
same,Blackgrass plant response rating,blackgrass; [1],0
same,Blackgrass plant response rating,blackgrass; [2],0
same,"Plant response rating, Blackgrass",blackgrass; [3],0
same,"Plant response rating, Blackgrass",blackgrass; [4],0
same,"Plant response rating, Blackgrass",blackgrass; [5],0
same,Blackgrass plant response rating,blackgrass; [6],0
same,Blackgrass plant response rating,blackgrass; [7],0
same,Blackgrass plant response rating,blackgrass; [8],0
same,B. signalgrass plant response rating,surinam grass; [1],0
same,B. signalgrass plant response rating,surinam grass; [2],0
same,"Plant response rating, B. signalgrass",surinam grass; [3],0
same,"Plant response rating, B. signalgrass",surinam grass; [4],0
same,"Plant response rating, B. signalgrass",surinam grass; [5],0
same,B. signalgrass plant response rating,surinam grass; [6],0
same,B. signalgrass plant response rating,surinam grass; [7],0
same,B. signalgrass plant response rating,surinam grass; [8],0
same,Cocklebur plant response rating,cocklebur; [9],0
same,Cocklebur plant response rating,"cocklebur; Rate 250 g/ha, scale 0 to 10, 0 no effect, 10 complete control",0
same,"Plant response rating, Cocklebur",cocklebur; [9],0
same,"Plant response rating, Cocklebur","cocklebur; Rate 125 g/ha, scale 0 to 10 (0 no effect, 10 complete control)",0
same,"Plant response rating, Cocklebur","cocklebur; Rate 250 g/ha, scale of 0 to 10 where 0 is no effect and 10 is complete control",0
same,Cocklebur plant response rating,"cocklebur; Rate 125 g/ha, scale 0 to 10, 0 no effect, 10 complete control",0
same,Cocklebur plant response rating,"cocklebur; Rate 500 g/ha, 0 to 10 scale (0 no effect, 10 complete control)",1
same,Corn plant response rating,corn; [1],0
same,Corn plant response rating,corn; [2],0
same,"Plant response rating, Corn",corn; [3],0
same,"Plant response rating, Corn",corn; [4],0
same,"Plant response rating, Corn",corn; [5],0
same,Corn plant response rating,corn; [6],0
same,Corn plant response rating,corn; [7],0
same,Corn plant response rating,corn; [8],0
same,Crabgrass plant response rating,crabgrass; [1],0
same,Crabgrass plant response rating,crabgrass; [2],0
same,"Plant response rating, Crabgrass",crabgrass; [3],0
same,"Plant response rating, Crabgrass",crabgrass; [4],0
same,"Plant response rating, Crabgrass",crabgrass; [5],3
same,Crabgrass plant response rating,crabgrass; [6],5
same,Crabgrass plant response rating,crabgrass; [7],0
same,Crabgrass plant response rating,crabgrass; [8],3
same,Giant foxtail plant response rating,giant foxtail; [1],0
same,Giant foxtail plant response rating,giant foxtail; [2],0
same,"Plant response rating, Giant foxtail",giant foxtail; [3],0
same,"Plant response rating, Giant foxtail",giant foxtail; [4],0
same,"Plant response rating, Giant foxtail",giant foxtail; [5],2
same,Giant foxtail plant response rating,giant foxtail; [6],3
same,Giant foxtail plant response rating,giant foxtail; [7],0
same,Giant foxtail plant response rating,giant foxtail; [8],0
same,Morningglory plant response rating,morningglory; [1],0
same,Morningglory plant response rating,morningglory; [2],0
same,"Plant response rating, Morningglory",morningglory; [3],0
same,"Plant response rating, Morningglory",morningglory; [4],0
same,"Plant response rating, Morningglory",morningglory; [5],0
same,Morningglory plant response rating,morningglory; [6],0
same,Morningglory plant response rating,morningglory; [7],0
same,Morningglory plant response rating,morningglory; [8],1
same,Redroot pigweed plant response rating,pigweed; [1],0
same,Redroot pigweed plant response rating,pigweed; [2],0
same,"Plant response rating, Redroot pigweed",pigweed; [3],0
same,"Plant response rating, Redroot pigweed",pigweed; [4],0
same,"Plant response rating, Redroot pigweed",pigweed; [5],0
same,Redroot pigweed plant response rating,pigweed; [6],0
same,Redroot pigweed plant response rating,pigweed; [7],0
same,Redroot pigweed plant response rating,pigweed; [8],0
same,Rape plant response rating,rape; [1],0
same,Rape plant response rating,rape; [2],0
same,"Plant response rating, Rape",rape; [3],0
same,"Plant response rating, Rape",rape; [4],0
same,"Plant response rating, Rape",rape; [5],0
same,Rape plant response rating,rape; [6],0
same,Rape plant response rating,rape; [7],0
same,Rape plant response rating,rape; [8],0
same,Soybean plant response rating,soybean; [1],0
same,Soybean plant response rating,soybean; [2],0
same,"Plant response rating, Soybean",soybean; [3],0
same,"Plant response rating, Soybean",soybean; [4],0
same,"Plant response rating, Soybean",soybean; [5],0
same,Soybean plant response rating,soybean; [6],0
same,Soybean plant response rating,soybean; [7],0
same,Sugarbeets plant response rating,sugar beet; [1],0
same,Sugarbeets plant response rating,sugar beet; [2],0
same,"Plant response rating, Sugarbeets",sugar beet; [3],0
same,"Plant response rating, Sugarbeets",sugar beet; [4],0
same,"Plant response rating, Sugarbeets",sugar beet; [5],0
same,Sugarbeets plant response rating,sugar beet; [6],0
same,Sugarbeets plant response rating,sugar beet; [7],0
same,Velvetleaf plant response rating,velvetleaf; [1],0
same,Velvetleaf plant response rating,velvetleaf; [2],0
same,"Plant response rating, Velvetleaf",velvetleaf; [3],0
same,"Plant response rating, Velvetleaf",velvetleaf; [4],0
same,"Plant response rating, Velvetleaf",velvetleaf; [5],0
same,Velvetleaf plant response rating,velvetleaf; [6],0
same,Velvetleaf plant response rating,velvetleaf; [7],0
same,Wheat plant response rating,wheat; [1],0
same,Wheat plant response rating,wheat; [2],0
same,"Plant response rating, Wheat",wheat; [3],0
same,"Plant response rating, Wheat",wheat; [4],0
same,"Plant response rating, Wheat",wheat; [5],0
same,Wheat plant response rating,wheat; [6],0
same,Wheat plant response rating,wheat; [7],0
same,Wild oats plant response rating,wild oat; [1],0
same,Wild oats plant response rating,wild oat; [2],0
same,"Plant response rating, Wild oats",wild oat; [4],0
same,"Plant response rating, Wild oats",wild oat; [5],0
same,Wild oats plant response rating,wild oat; [6],0
same,Wild oats plant response rating,wild oat; [7],0
same,Nutsedge plant response rating,purple nutsedge; [1],0
same,Nutsedge plant response rating,purple nutsedge; [2],0
same,"Plant response rating, Nutsedge",purple nutsedge; [3],0
same,"Plant response rating, Nutsedge",purple nutsedge; [4],0
same,"Plant response rating, Nutsedge",purple nutsedge; [5],0
same,Nutsedge plant response rating,purple nutsedge; [6],0
same,Nutsedge plant response rating,purple nutsedge; [7],0
same,Ducksalad plant response rating,duck salad,0
